# In ChEMBL document CHEMBL5050845, “Enhancers of neurolysin activity” (2020):
# Active and inactive are the calls of the source. The rule behind the calls is not given here. Peptide text beside a SMILES is read from it. * marks the point of attachment. NHPhenethyl = c1ccc(CCN*)cc1; Boc = CC(C)(C)OC(=O)*
# Legend:
# Rattus norvegicus [1] = organism: Rattus norvegicus; assay: Positive allosteric modulation of catalytic activity of recombinant N-terminal poly-His tagged rat neurolysin using Mca-Pro-Leu- Gly-Pro-D-Lys(DNP)-OH as substrate and measured by fluorescence based assay relative to control; conditions: filed as positive allosteric modulator
# Rattus norvegicus [2] = organism: Rattus norvegicus; assay: Positive allosteric modulation of catalytic activity of recombinant N-terminal poly-His tagged rat neurolysin using Mca-Pro-Leu- Gly-Pro-D-Lys(DNP)-OH as substrate in presence of 1 uM dynoprhin A (1 to 13) and measured by fluorescence based assay relative to control; conditions: filed as positive allosteric modulator
# Rattus norvegicus [3] = organism: Rattus norvegicus; assay: Positive allosteric modulation of catalytic activity of recombinant N-terminal poly-His tagged rat neurolysin at 40 uM assessed as Vmax as fluorescent unit/ng protein and measured fluorescence assay; conditions: filed as positive allosteric modulator
# Rattus norvegicus [4] = organism: Rattus norvegicus; assay: Positive allosteric modulation of catalytic activity of recombinant N-terminal poly-His tagged rat neurolysin at 100 uM assessed as Vmax as fluorescent unit/ng protein measured fluorescence assay; conditions: filed as positive allosteric modulator
# Rattus norvegicus [5] = organism: Rattus norvegicus; assay: Positive allosteric modulation of catalytic activity of recombinant N-terminal poly-His tagged rat neurolysin at 40 uM assessed as Km measured fluorescence assay; conditions: filed as positive allosteric modulator
# Rattus norvegicus [6] = organism: Rattus norvegicus; assay: Positive allosteric modulation of catalytic activity of recombinant N-terminal poly-His tagged rat neurolysin at 100 uM assessed as Km measured fluorescence assay; conditions: filed as positive allosteric modulator
# Homo sapiens [7] = organism: Homo sapiens; assay: Positive allosteric modulation of recombinant N-terminal Met and His-tagged human neurolysin using Mca-Pro-Leu- Gly-Pro-D-Lys(DNP)-OH as substrate and measured by fluorescence based assay relative to control; conditions: filed as positive allosteric modulator
# Mus musculus = organism: Mus musculus; assay: Positive allosteric modulation of neurolysin in mouse brain using Mca-Pro-Leu- Gly-Pro-D-Lys(DNP)-OH as substrate and measured by fluorescence based assay relative to control; assay type: tissue-based; conditions: filed as positive allosteric modulator
# Homo sapiens [8] = organism: Homo sapiens; assay: Inhibition of recombinant N-terminal Met and His-tagged human Thimet oligopeptidase at 300 uM using Mca-Pro-Leu-Gly-Pro-D-Lys(DNP)-OH as substrate and measured by fluorescence based assay relative to control
# [9] = molecular target: Angiotensin-converting enzyme 2 (Homo sapiens) (UniProt Q9BYF1); assay: Inhibition of recombinant N-terminal Met and His-tagged human ACE2 at 300 uM using Mca-Ala-Pro-Lys-(Dnp)-OH as substrate and measured by fluorescence based assay relative to control
# [10] = molecular target: Angiotensin-converting enzyme (Homo sapiens) (UniProt P12821); assay: Inhibition of recombinant C-terminal 10His-tagged human ACE at 300 uM using Mca-Arg-Pro-Pro-Gly-Phe-Ser-Ala-Phe-Lys(Dnp)-OH as substrate and measured by fluorescence based assay relative to control
# [11] = molecular target: Neprilysin (Homo sapiens) (UniProt P08473); assay: Inhibition of recombinant N-terminal 6His-tagged human neprilysin expressed in CHO cells at 300 uM using Mca-Arg-Pro-Pro-Gly-Phe-Ser-Ala-Phe-Lys(Dnp)-OH as substrate and measured by fluorescence based assay relative to control
# Rattus norvegicus [12] = organism: Rattus norvegicus; assay: Positive allosteric modulation of catalytic activity of recombinant N-terminal poly-His tagged rat neurolysin assessed as effect on fluorescence signal of Mca-Pro-Leu-OH and measured fluorescence assay
# Rattus norvegicus [13] = organism: Rattus norvegicus; assay: Positive allosteric modulation of recombinant N-terminal poly-His tagged rat neurolysin using Mca-Pro-Leu- Gly-Pro-D-Lys(DNP)-OH as substrate assessed as Amax and measured by fluorescence based assay relative to control
# Rattus norvegicus [14] = organism: Rattus norvegicus; assay: Positive allosteric modulation of recombinant N-terminal poly-His tagged rat neurolysin using Mca-Pro-Leu- Gly-Pro-D-Lys(DNP)-OH as substrate and measured by fluorescence based assay
# Rattus norvegicus [15] = organism: Rattus norvegicus; assay: Positive allosteric modulation of recombinant N-terminal poly-His tagged rat neurolysin at 100 uM assessed fold increase in formation of angiotensin (1 to 7) from angiotensin I and measured by mass spectrometry analysis; conditions: filed as positive allosteric modulator
# Rattus norvegicus [16] = organism: Rattus norvegicus; assay: Positive allosteric modulation of recombinant N-terminal poly-His tagged rat neurolysin at 100 uM assessed fold increase in formation of bradykinin (1 to 5) from bradykinin and measured by mass spectrometry analysis; conditions: filed as positive allosteric modulator
# Rattus norvegicus [17] = organism: Rattus norvegicus; assay: Positive allosteric modulation of recombinant N-terminal poly-His tagged rat neurolysin at 100 uM assessed fold increase in formation of neurotensin (1 to 10) from neurotensin and measured by mass spectrometry analysis; conditions: filed as positive allosteric modulator
# [18] = Inhibition of recombinant N-terminal poly-His tagged rat neurolysin using Mca-Pro-Leu- Gly-Pro-D-Lys(DNP)-OH as substrate in presence of 100 uM NSC 374121 and measured by fluorescence based assay relative to control
# [19] = Inhibition of recombinant N-terminal poly-His tagged rat neurolysin using Mca-Pro-Leu- Gly-Pro-D-Lys(DNP)-OH as substrate in presence of 100 uM NSC 523374 and measured by fluorescence based assay relative to control
# [20] = filed as positive allosteric modulator
# Sequence of Neprilysin (Homo sapiens) (P08473 whole entry): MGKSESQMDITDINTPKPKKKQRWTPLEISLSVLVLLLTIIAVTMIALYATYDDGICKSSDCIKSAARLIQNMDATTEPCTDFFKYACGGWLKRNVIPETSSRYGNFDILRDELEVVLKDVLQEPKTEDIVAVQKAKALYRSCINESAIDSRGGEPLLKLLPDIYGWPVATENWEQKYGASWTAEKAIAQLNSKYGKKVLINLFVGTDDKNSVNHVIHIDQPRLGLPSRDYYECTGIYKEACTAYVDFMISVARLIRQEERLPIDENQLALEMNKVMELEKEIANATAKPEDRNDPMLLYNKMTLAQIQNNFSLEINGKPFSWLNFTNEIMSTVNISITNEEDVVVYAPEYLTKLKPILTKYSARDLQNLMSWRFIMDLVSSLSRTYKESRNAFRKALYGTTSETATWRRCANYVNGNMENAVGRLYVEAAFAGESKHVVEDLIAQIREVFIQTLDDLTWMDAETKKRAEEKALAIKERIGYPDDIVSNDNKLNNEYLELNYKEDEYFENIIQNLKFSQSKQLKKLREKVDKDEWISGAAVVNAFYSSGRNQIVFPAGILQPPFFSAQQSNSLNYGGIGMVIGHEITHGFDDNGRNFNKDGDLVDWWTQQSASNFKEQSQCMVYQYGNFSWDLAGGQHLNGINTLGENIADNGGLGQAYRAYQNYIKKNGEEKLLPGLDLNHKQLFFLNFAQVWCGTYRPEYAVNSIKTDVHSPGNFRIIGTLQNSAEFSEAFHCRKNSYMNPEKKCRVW
# Sequence of Angiotensin-converting enzyme 2 (Homo sapiens) (Q9BYF1 18-805 limits assumed): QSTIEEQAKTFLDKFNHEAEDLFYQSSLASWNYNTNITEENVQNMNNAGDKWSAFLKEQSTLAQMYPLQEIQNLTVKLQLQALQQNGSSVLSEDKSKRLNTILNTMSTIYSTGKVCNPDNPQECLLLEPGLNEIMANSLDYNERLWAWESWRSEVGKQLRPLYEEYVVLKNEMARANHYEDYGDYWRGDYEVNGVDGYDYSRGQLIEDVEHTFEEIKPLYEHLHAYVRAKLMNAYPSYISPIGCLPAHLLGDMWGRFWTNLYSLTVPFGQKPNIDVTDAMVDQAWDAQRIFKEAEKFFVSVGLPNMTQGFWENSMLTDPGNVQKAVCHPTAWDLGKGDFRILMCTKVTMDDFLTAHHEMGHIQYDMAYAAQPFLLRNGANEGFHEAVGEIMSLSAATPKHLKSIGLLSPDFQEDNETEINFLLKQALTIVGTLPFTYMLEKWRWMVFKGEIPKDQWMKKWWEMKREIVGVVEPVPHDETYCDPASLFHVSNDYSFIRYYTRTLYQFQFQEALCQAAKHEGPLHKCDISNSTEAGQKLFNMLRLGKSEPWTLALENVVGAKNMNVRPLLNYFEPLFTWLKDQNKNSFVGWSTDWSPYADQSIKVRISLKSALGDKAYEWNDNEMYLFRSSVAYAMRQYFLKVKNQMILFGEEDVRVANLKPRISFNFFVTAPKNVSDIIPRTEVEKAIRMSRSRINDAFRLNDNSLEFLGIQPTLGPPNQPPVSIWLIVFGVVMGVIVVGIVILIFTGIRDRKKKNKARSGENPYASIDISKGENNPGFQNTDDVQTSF
# Sequence of Angiotensin-converting enzyme (Homo sapiens) (P12821 whole entry): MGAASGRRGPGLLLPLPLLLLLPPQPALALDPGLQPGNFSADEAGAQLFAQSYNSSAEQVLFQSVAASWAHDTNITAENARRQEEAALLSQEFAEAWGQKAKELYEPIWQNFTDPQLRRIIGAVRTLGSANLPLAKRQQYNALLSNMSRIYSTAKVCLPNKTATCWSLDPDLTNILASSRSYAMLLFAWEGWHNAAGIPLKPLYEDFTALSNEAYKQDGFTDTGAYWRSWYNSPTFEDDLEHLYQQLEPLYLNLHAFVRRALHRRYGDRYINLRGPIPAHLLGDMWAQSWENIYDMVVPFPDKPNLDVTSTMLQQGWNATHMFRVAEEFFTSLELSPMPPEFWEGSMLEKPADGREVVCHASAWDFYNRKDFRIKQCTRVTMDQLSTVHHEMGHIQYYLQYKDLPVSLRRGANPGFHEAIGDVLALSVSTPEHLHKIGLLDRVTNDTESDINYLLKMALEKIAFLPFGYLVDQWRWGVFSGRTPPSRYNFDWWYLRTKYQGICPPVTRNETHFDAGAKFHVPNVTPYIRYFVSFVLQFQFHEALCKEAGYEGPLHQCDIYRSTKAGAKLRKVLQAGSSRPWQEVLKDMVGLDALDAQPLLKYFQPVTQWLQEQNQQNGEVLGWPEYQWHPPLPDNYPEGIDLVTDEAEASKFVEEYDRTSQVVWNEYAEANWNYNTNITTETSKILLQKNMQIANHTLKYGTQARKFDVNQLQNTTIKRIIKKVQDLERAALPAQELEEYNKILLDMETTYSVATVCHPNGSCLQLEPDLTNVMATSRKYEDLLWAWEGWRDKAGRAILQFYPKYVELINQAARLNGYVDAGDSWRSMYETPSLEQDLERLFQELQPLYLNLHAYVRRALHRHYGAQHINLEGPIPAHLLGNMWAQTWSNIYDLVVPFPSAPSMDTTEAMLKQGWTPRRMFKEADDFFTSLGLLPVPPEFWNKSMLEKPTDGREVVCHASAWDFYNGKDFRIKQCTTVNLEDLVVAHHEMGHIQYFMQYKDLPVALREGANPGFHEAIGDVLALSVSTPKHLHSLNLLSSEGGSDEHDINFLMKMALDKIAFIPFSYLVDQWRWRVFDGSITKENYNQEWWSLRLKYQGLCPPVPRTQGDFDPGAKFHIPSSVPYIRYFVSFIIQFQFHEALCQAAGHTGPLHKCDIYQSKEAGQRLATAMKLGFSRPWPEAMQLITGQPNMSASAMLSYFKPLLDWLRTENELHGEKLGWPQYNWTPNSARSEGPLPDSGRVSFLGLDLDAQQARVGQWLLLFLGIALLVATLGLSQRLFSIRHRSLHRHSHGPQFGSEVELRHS
structure (smiles),measurement,setting,value
NC(Cc1c[nH]cn1)C(=O)NC(Cc1c[nH]cn1)C(=O)O (stereo not drawn),Emax,Rattus norvegicus [1],203%
same,Emax,Rattus norvegicus [2],198%
same,Vmax,Rattus norvegicus [3],112 min⁻¹
same,Vmax,Rattus norvegicus [4],148 min⁻¹
same,Km,Rattus norvegicus [5],8 µM
same,Km,Rattus norvegicus [6],6.1 µM
same,Emax,Homo sapiens [7],214%
same,Emax,Mus musculus,258%
same,inhibition,Homo sapiens [8],15.6%
same,inhibition,[9],10.9%
same,inhibition,[10],12.2%
same,inhibition,[11],1.6%
same,Activity,Rattus norvegicus [12],inactive
N[C@H](Cc1c[nH]cn1)C(=O)NCCc1ccc2ccccc2c1,Emax,Rattus norvegicus [13]; [20],340%
N[C@@H](Cc1c[nH]cn1)C(=O)N[C@H](Cc1cc2ccccc2[nH]1)C(=O)O,Emax,Rattus norvegicus [13]; [20],440%
N[C@H](Cc1c[nH]cn1)C(=O)NCCc1ccccc1C(F)(F)F,Emax,Rattus norvegicus [13]; [20],396%
N[C@H](Cc1cnc[nH]1)C(=O)NCc1cccc(C(F)(F)F)c1,Emax,Rattus norvegicus [13]; [20],184%
N[C@@H](Cc1c[nH]cn1)C(=O)NCCc1ccc(C(F)(F)F)cc1,Emax,Rattus norvegicus [13]; [20],438%
N[C@@H](Cc1cnc[nH]1)C(=O)N[C@@H](Cc1ccc(O)cc1)C(=O)O (H-His-Tyr-OH),Emax,Rattus norvegicus [13]; [20],467%
N[C@H](Cc1c[nH]cn1)C(=O)NCCc1ccccc1,Emax,Rattus norvegicus [13]; [20],407%
CC(C)(C)OC(=O)N[C@@H](Cc1c[nH]cn1)C(=O)N[C@@H](Cc1ccccc1)C(=O)O (Boc-His-Phe-OH),A50,Rattus norvegicus [14],inactive
same,Emax,Rattus norvegicus [13],inactive
COc1ccc(CNC(=O)[C@H](N)Cc2cnc[nH]2)cc1,Emax,Rattus norvegicus [13]; [20],704%
N[C@@H](Cc1c[nH]cn1)C(=O)NCCc1ccc(F)cc1,A50,Rattus norvegicus [14]; [20],27.9 µM
same,Emax,Rattus norvegicus [13]; [20],323%
N[C@H](Cc1c[nH]cn1)C(=O)NCCc1ccc(C(F)(F)F)cc1,Emax,Rattus norvegicus [13]; [20],643%
N[C@@H](Cc1c[nH]cn1)C(=O)NCc1ccc(F)cc1,Emax,Rattus norvegicus [13]; [20],252%
N[C@@H](Cc1c[nH]cn1)C(=O)NCc1ccc(C(F)(F)F)cc1,Emax,Rattus norvegicus [13]; [20],305%
N[C@@H](Cc1c[nH]cn1)C(=O)NCCc1cc2ccccc2[nH]1,Emax,Rattus norvegicus [13]; [20],259%
N[C@@H](Cc1c[nH]cn1)C(=O)Nc1ccccc1,A50,Rattus norvegicus [14]; [20],7.74 µM
same,Emax,Rattus norvegicus [13]; [20],140%
O=C(CCc1cnc[nH]1)NCCc1c[nH]c2ccccc12,A50,Rattus norvegicus [14],inactive
same,Emax,Rattus norvegicus [13],inactive
NC(Cc1c[nH]cn1)C(=O)NCCc1cc2ccccc2[nH]1 (racemic),Emax,Rattus norvegicus [13]; [20],311%
CC(C)(C)OC(=O)N[C@@H](Cc1c[nH]cn1)C(=O)NCCc1cc2ccccc2[nH]1,A50,Rattus norvegicus [14],inactive
same,Emax,Rattus norvegicus [13],inactive
N[C@@H](Cc1c[nH]cn1)C(=O)N[C@@H](Cc1ccccc1)C(=O)NCCc1ccccc1 (H-His-Phe-NHPhenethyl),A50,Rattus norvegicus [14]; [20],5.4 µM
same,Emax,Rattus norvegicus [13]; [20],178%
N[C@H](Cc1c[nH]cn1)C(=O)NCc1ccc(C(F)(F)F)cc1,Emax,Rattus norvegicus [13]; [20],599%
N[C@@H](Cc1c[nH]cn1)C(=O)NCCc1ccccc1,Emax,Rattus norvegicus [13]; [20],231%
N[C@@H](Cc1c[nH]cn1)C(=O)NCc1ccccc1C(F)(F)F,Emax,Rattus norvegicus [13]; [20],334%
N[C@@H](Cc1c[nH]cn1)C(=O)NCc1ccccc1,Emax,Rattus norvegicus [13]; [20],152%
COc1ccc(CNC(=O)[C@@H](N)Cc2c[nH]cn2)cc1,Emax,Rattus norvegicus [13]; [20],429%
N[C@@H](Cc1ccccn1)C(=O)NCCc1ccccc1,A50,Rattus norvegicus [14],inactive
same,Emax,Rattus norvegicus [13],inactive
N[C@@H](Cc1c[nH]cn1)C(=O)NCc1ccc2ccccc2c1,A50,Rattus norvegicus [14]; [20],12.3 µM
same,Emax,Rattus norvegicus [13]; [20],262%
N[C@@H](Cc1c[nH]cn1)C(=O)NCc1cccc(C(F)(F)F)c1,Emax,Rattus norvegicus [13]; [20],494%
N[C@@H](Cc1c[nH]cn1)C(=O)NCCc1ccc2ccccc2c1,Emax,Rattus norvegicus [13]; [20],324%
N[C@H](Cc1c[nH]cn1)C(=O)NCCc1cc2ccccc2[nH]1,Emax,Rattus norvegicus [13]; [20],132%
N[C@@H](Cc1cnc[nH]1)C(=O)N[C@@H](Cc1ccccc1)C(=O)O (H-His-Phe-OH),A50,Rattus norvegicus [14]; [20],130 µM
same,Emax,Rattus norvegicus [13]; [20],573%
COc1cccc(CCNC(=O)[C@H](N)Cc2c[nH]cn2)c1,Emax,Rattus norvegicus [13]; [20],255%
N[C@@H](Cc1c[nH]cn1)C(=O)N1CCCC1,Emax,Rattus norvegicus [13]; [20],173%
COc1ccc(CCNC(=O)[C@@H](N)Cc2c[nH]cn2)cc1,Emax,Rattus norvegicus [13]; [20],544%
N[C@H](Cc1c[nH]cn1)C(=O)NCc1cccc2ccccc12,Emax,Rattus norvegicus [13]; [20],343%
NC(Cc1c[nH]cn1)C(=O)NC(Cc1ccc(O)cc1)C(=O)O (stereo not drawn) (H-His-Tyr-OH; configuration not given here),Emax,Rattus norvegicus [1],235%
same,Emax,Rattus norvegicus [2],238%
same,Vmax,Rattus norvegicus [3],124 min⁻¹
same,Vmax,Rattus norvegicus [4],165 min⁻¹
same,Km,Rattus norvegicus [5],7.9 µM
same,Km,Rattus norvegicus [6],6.4 µM
same,Emax,Homo sapiens [7],204%
same,Emax,Mus musculus,190%
same,inhibition,Homo sapiens [8],25.9%
same,inhibition,[9],13.4%
same,inhibition,[10],22.6%
same,inhibition,[11],2.9%
same,fold change (FC),Rattus norvegicus [15],6
same,fold change (FC),Rattus norvegicus [16],2
same,fold change (FC),Rattus norvegicus [17],3
same,Activity,Rattus norvegicus [12],inactive
O=C1NC(Cc2c[nH]cn2)C(=O)N2CCCC12 (stereo not drawn),A50,Rattus norvegicus [14],inactive
same,Emax,Rattus norvegicus [13],inactive
CC(C)(C)OC(=O)N[C@@H](Cc1c[nH]cn1)C(=O)NCCc1c[nH]c2ccccc12,A50,Rattus norvegicus [14],inactive
same,Emax,Rattus norvegicus [13],inactive
CC(C)(C)OC(=O)N[C@@H](Cc1c[nH]cn1)C(=O)NCCc1ccccc1,A50,Rattus norvegicus [14],inactive
same,Emax,Rattus norvegicus [13],inactive
COc1cccc(CNC(=O)[C@H](N)Cc2cnc[nH]2)c1,Emax,Rattus norvegicus [13]; [20],477%
COc1ccccc1CNC(=O)[C@H](N)Cc1c[nH]cn1,Emax,Rattus norvegicus [13]; [20],325%
N[C@@H](Cc1c[nH]cn1)C(=O)NCc1cccc2ccccc12,Emax,Rattus norvegicus [13]; [20],264%
CC[C@H](C)[C@H](NC(=O)[C@H](CCCNC(=N)N)NC(=O)[C@H](CCCNC(=N)N)NC(=O)[C@H](CC(C)C)NC(=O)[C@H](Cc1ccccc1)NC(=O)CNC(=O)CNC(=O)[C@@H](N)Cc1ccc(O)cc1)C(=O)N[C@@H](CCCNC(=N)N)C(=O)N1CCC[C@H]1C(=O)N[C@@H](CCCCN)C(=O)N[C@@H](CC(C)C)C(=O)N[C@@H](CCCCN)C(=O)O [ANALOG OF DYNORPHIN A],Ki,[18],700 nM
same,Ki,[19],600 nM
